Results: patent publication US20240239780A1, “MODIFIED FERROPORTIN INHIBITORS” (Vifor (International) AG, priority 2021, published 2024)

Biological target: human Fpn-GFP fusion protein (Homo sapiens, UniProt Q9NP59)
Assay: cell-based
Conditions: not given
Source text: Growing HEK-293 #354 cells in doxycycline containing media induced expression of human Fpn-GFP fusion protein on the cell surface.

human Fpn-GFP fusion protein, sequence (Q9NP59 whole entry, the tested form may be a part): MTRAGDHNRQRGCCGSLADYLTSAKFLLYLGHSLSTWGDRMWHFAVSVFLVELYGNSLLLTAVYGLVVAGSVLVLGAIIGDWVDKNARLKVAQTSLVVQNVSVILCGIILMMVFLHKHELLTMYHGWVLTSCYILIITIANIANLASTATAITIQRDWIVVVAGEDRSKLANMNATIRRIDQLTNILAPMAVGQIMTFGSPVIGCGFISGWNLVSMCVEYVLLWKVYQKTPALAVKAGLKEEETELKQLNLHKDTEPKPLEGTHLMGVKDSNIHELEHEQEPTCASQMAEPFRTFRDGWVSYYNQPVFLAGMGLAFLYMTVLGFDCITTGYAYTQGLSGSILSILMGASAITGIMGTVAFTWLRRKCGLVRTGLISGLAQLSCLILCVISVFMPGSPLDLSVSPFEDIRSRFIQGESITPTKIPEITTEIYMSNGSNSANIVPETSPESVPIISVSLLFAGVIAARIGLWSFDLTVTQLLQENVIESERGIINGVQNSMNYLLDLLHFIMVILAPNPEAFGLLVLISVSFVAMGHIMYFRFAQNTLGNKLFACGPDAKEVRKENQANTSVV

| SMILES | EC50 |
| --- | --- |
| CC[C@H](C)[C@@H]1NC(=O)[C@@H](NC(=O)[C@@H](NC(=O)[C@@H]2CCCN2C(=O)[C@H](Cc2ccccc2)NC(=O)[C@H](Cc2c[nH]cn2)NC(=O)[C@@H](NC(=O)[C@@H](N)CC(=O)O)[C@@H](C)O)[C@@H](C)CC)CSSC[C@@H](C(=O)N[C@@H](CCCCN)C(=O)N[C@H](C(=O)O)[C@@H](C)O)NC(=O)[C@@H]2CSSC[C@@H]3NC(=O)[C@@H]4CSSC[C@H](NC(=O)[C@H](Cc5ccccc5)NC1=O)C(=O)N[C@@H](CSSC[C@H](NC(=O)[C@H](CCCCN)NC(=O)[C@H](CO)NC(=O)[C@H](CCCNC(=N)N)NC(=O)[C@H](Cc1c[nH]cn1)NC3=O)C(=O)NCC(=O)N[C@@H](CCSC)C(=O)N2)C(=O)NCC(=O)N4 [hepcidin] | ~4 nM |

Biological target: T1, ferroportin (Fpn) (Mus musculus, UniProt Q9JHI9)
T1 construct: endogenous in cells; host or cells: J774 mouse macrophage cell line, induced with Fe(III)NTA
T1 sequence (Q9JHI9 1-570): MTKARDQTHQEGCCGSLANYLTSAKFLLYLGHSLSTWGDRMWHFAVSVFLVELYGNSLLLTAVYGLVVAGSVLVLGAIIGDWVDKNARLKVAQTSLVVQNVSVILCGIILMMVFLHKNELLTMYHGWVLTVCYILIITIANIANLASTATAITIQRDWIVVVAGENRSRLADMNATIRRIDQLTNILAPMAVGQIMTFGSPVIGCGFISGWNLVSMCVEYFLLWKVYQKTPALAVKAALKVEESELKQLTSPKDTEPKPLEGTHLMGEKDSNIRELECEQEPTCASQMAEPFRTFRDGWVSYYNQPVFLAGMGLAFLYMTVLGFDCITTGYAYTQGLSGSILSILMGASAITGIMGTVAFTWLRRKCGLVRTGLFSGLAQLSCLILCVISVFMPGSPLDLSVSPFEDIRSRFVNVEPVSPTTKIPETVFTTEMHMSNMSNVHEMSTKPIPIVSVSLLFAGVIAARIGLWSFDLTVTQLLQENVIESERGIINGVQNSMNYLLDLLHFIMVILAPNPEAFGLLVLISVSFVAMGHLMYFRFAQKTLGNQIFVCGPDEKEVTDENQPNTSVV
Assay: Hepcidin Internalization Assay (J774)
Type: cell-based
Conditions: J774 cells, TMR-hepcidin 25 nM, 2 hours; read-out: IC 50, average (AVE) of multiple measurements, hepcidin internalization assay
Source text: This cellular assay allows quantification of the binding of hepcidin to ferroportin (Fpn) through microscopic detection of internalization of a fluorescently labeled hepcidin into J774 cells. […] Binding of hepcidin to Fpn triggers internalization and degradation of both hepcidin and Fpn. […] Therefore, microscopic detection of cell-associated TMR fluorescence is a measure of hepcidin binding to Fpn and internalization of hepcidin and Fpn. If TMR-hepcidin is prevented from binding to Fpn, cellular TMR fluorescence remains low (Dürrenberger et al, 2013). The effect of small molecular weight Fpn inhibitor compounds in this assay was evaluated in vitro as described below. […] Cat. 655090) and grown at 37° C. with 5% CO2. After overnight incubation, cells were washed 3 times with pre-warmed DMEM w/o phenol red, 30 μl/well of DMEM w/o phenol red was added after the final wash and 10 μl/well of dilution series of test compounds were added in triplicates. […] Cells were incubated in a total volume of 50 μl at 37° C. with 5% CO2 for 2 hours, then Hoechst 33342 dye was added to a final concentration of 0.5 μg/ml to stain nuclei and further incubated for 10 min. at 37° C. with 5% CO2. […] After removal of the paraformaldehyde solution, cells were washed 3 times with PBS leaving 100 μl per well and the plates were sealed with foil plate seal. […] The acquired image data was analysed with the […] analysis software. […] IC50 values were calculated with the Sum(Mean) raw data using “log(inhibitor) vs. response” curve fitting of Prism 5 software (GraphPad Software Inc., version 5.02). For each data set the fit of the “log(inhibitor) vs. response (three parameters)” model was compared to the fit of the “log(inhibitor) vs. response-Variable slope (four parameters)” model and the IC50 data of the preferred model was used.

| SMILES | IC50 |
| --- | --- |
| O=C(NCc1ncccc1F)c1coc(CCNCc2nc3cc4ccccc4cc3[nH]2)n1 [compound 1, 2-(2-(((1H-naphtho[2,3-d]imidazol-2-yl)methyl)amino)ethyl)-N-((3-fluoropyridin-2-yl)methyl)oxazole-4-carboxamide] | 40 nM |
| O=C(NCc1ccc2c(ccc3ccccc32)n1)c1coc(CCNCCc2nc3ccccc3[nH]2)n1 [compound 6, 2-(2-((2-(1H-benzo[d]imidazol-2-yl)ethyl)amino)ethyl)-N-(benzo[f]quinolin-3-ylmethyl)oxazole-4-carboxamide] | 1600 nM |
| O=C(NCc1ncccc1C(F)(F)F)c1coc(CCNCCc2nc3c(ccc4ccccc43)[nH]2)n1 [compound 16] | 443 nM |
| O=C(NCc1ncccc1F)c1coc(CCNCCc2nc3ccc(CN4CCOCC4)cc3[nH]2)n1 [compound 35] | 57 nM |
| COc1cccnc1CNC(=O)c1coc(CCNCCc2nc3cc4c(cc3[nH]2)OCCO4)n1 [compound 48] | 26 nM |
| O=C(NCc1ncccc1C(F)(F)F)c1coc(CCNCCc2nc3cc(-n4cccc4)ccc3[nH]2)n1 [compound 58] | 171 nM |
| COc1cccc(-c2ccc3[nH]c(CCNCCc4nc(C(=O)NCc5ncccc5F)co4)nc3c2)c1 [compound 63] | 8 nM |
| COCCOc1ccccc1-c1ccc2[nH]c(CCNCCc3nc(C(=O)NCc4ncccc4F)co3)nc2c1 [compound 68] | 7 nM |
| O=C(NCc1ncccc1F)c1coc(CCNCCc2nc3cnc4ccccc4c3[nH]2)n1 [compound 3, 2-(2-((2-(3H-imidazo[4,5-c]quinolin-2-yl)ethyl)amino)ethyl)-N-((3-fluoropyridin-2-yl)methyl)oxazole-4-carboxamide] | 593 nM |
| Cc1ccc(-c2ccc3[nH]c(CCNCCc4nc(C(=O)NCc5ncccc5F)co4)nc3c2)cc1 [compound 60] | 13 nM |

Now from value to compound:

| IC50 | SMILES |
| --- | --- |
| 6 nM | COc1cccc(-c2ccc3[nH]c(CCNCCc4nc(C(=O)NCc5ncccc5F)co4)nc3c2)c1OC [compound 83] |
| 2 nM | O=C(NCc1ncccc1F)c1coc(CCNCCc2nc3cc(C#Cc4cccnc4)ccc3[nH]2)n1 [compound 73] |
| 189 nM | O=C(NCc1ncccc1F)c1coc(CCNCCc2nc3c(-c4ccncc4)cccc3[nH]2)n1 [compound 20] |
| 14 nM | O=C(NCc1ncccc1F)c1coc(CCNCCc2nc3cc(-c4cccc(-c5ncco5)c4)ccc3[nH]2)n1 [compound 87] |
| 9 nM | O=C(NCc1ncccc1F)c1coc(CCNCCc2nc3cc(-c4ccccc4-c4ncco4)ccc3[nH]2)n1 [compound 86] |

Biological target: human Fpn (Homo sapiens, UniProt Q9NP59)
Assay: biochemical
Conditions: not given
Protocol: This biophysical assay was developed to confirm inhibition of hepcidin binding to ferroportin (Fpn) more directly. Incubation of TMR-hepcidin with purified human Fpn isolated from Pichia pastoris yeast cells expressing human Fpn with a C-terminal FLAG affinity tag (Bonaccorsi di Patti, 2014) leads to increased fluorescence polarization (FP) of the TMR-hepcidin ligand.

human Fpn, sequence (Q9NP59 whole entry): as the sequence (Q9NP59 whole entry, the tested form may be a part) above

| SMILES | IC50 |
| --- | --- |
| CC[C@H](C)[C@@H]1NC(=O)[C@@H](NC(=O)[C@@H](NC(=O)[C@@H]2CCCN2C(=O)[C@H](Cc2ccccc2)NC(=O)[C@H](Cc2c[nH]cn2)NC(=O)[C@@H](NC(=O)[C@@H](N)CC(=O)O)[C@@H](C)O)[C@@H](C)CC)CSSC[C@@H](C(=O)N[C@@H](CCCCN)C(=O)N[C@H](C(=O)O)[C@@H](C)O)NC(=O)[C@@H]2CSSC[C@@H]3NC(=O)[C@@H]4CSSC[C@H](NC(=O)[C@H](Cc5ccccc5)NC1=O)C(=O)N[C@@H](CSSC[C@H](NC(=O)[C@H](CCCCN)NC(=O)[C@H](CO)NC(=O)[C@H](CCCNC(=N)N)NC(=O)[C@H](Cc1c[nH]cn1)NC3=O)C(=O)NCC(=O)N[C@@H](CCSC)C(=O)N2)C(=O)NCC(=O)N4 [hepcidin] | ~370 nM |
